What was measured:
[1] = tested on: nitric oxide (NO), inducible nitric oxide synthase (iNOS), and cyclooxygenase-2 (COX-2); settings: synthesized demethylated compounds compared with nobiletin per se; Non Patent Literature 3; cited from earlier work
Neuro2a = test: Neurite elongation activity in Neuro2a neurocytes; format: cell-based; settings: 20 μM, observed under microscope two days after addition, compared with comparative controls nobiletin and tangeretin
Procedure: The conversion compound 1, i.e., an isolated product of 4′-demethylnobiletin, and the conversion compound 2, i.e., an isolated product of 4′-demethyltangeretin, both obtained in Example 3 above were used to study neurite elongation activities. Neuro2a was used as a neurocyte.
First, Neuro2a cells were cultured in DMEM medium containing 10% fetal bovine serum (FBS) in a 37° C. incubator with 5% CO2. The cells were subcultured every three days.
Then, the cells were inoculated in a 24′-well cell culture plate at 2×10^4/well using DMEM medium containing 5% FBS. Three hours after subculture, various test samples were added each at a concentration of 20 μM. 4′-demethylnobiletin (the product in Example 3), 4′-demethyltangeretin (the product in Example 3), nobiletin (a comparative control), and tangeretin (a comparative control) dissolved in ethanol were used as the test samples. As a control, only ethanol was used.
Then, two days after addition of the various test samples, neurite elongation activities were observed under microscope. FIG. 4 show picture images for comparing the neurite elongation activities exerted by the various test samples in cultures.

SMILES	effect of preventing development of cancer by suppressing synthesis of NO, iNOS and COX-2 [1]	neurite elongation activity (Neuro2a)
COc1c(OC)c(OC)c2c(=O)cc(-c3ccc(O)c(O)c3)oc2c1OC [3′,4′-didemethylnobiletin]	drastically higher effect than nobiletin	–
COc1ccc(-c2cc(=O)c3c(OC)c(OC)c(OC)c(OC)c3o2)cc1O [3′-demethylnobiletin]	drastically higher effect than nobiletin	–
COc1cc(-c2cc(=O)c3c(OC)c(OC)c(OC)c(OC)c3o2)ccc1O [4′-demethylnobiletin]	drastically higher effect than nobiletin	significant neurite elongation activities
COc1c(OC)c(OC)c2c(=O)cc(-c3ccc(O)cc3)oc2c1OC [4′-demethyltangeretin]	–	significant neurite elongation activities

Reference: patent US8940789B2, “Neurite elongation agent, memory-improving agent and anti-Alzheimer agent comprising 4′-demethylnobiletin or 4′-demethyltangeretin as active ingredient, and process for production of the compound” (Fuji Sangyo Co., Ltd., priority 2009, dated 2015)
